From US20080118441A1, “COMPOSITIONS AND METHODS FOR THE TREATMENT OF GASTROINTESTINAL CONDITIONS” (priority 2006, published 2008)

Test system: symptoms of a gastrointestinal condition
Experiment: ingestion of glutamine shortly after the present compositions
Type: in vivo
Conditions: glutamine ingested shortly after the compositions
Source text: In one example, the symptoms of a gastrointestinal condition will reappear rapidly if glutamine is ingested shortly after the present compositions. Exclusion of glutamine from the present compositions is therefore contemplated, and it may be advisable for persons being treated with the present compositions to reduce dietary consumption of glutamine, especially within one hour of ingesting the disclosed composition. Typically, an average person consumes 5-10 grams glutamine per day. In one embodiment, a person being treated with the present composition consumes no glutamine within one hour of ingestion, and preferably consumes less than about 5 grams glutamine per day, more preferably less than about 4.5 grams glutamine per day, and most preferably less than about 4 grams glutamine per day.

NC(=O)CC[C@H](N)C(=O)O [glutamine]
effect on the therapeutic effect of the disclosed compositions: counteracts the therapeutic effect
